Legend:
[1] = test system: reserpine-induced hypothermia; test: Reversal of reserpine-induced hypothermia in mice (potential antidepressant activity); assay type: in vivo; conditions: Mus musculus, po; minimum effective dose, p.o., statistically significant reversal of hypothermia induced by reserpine 5mg/kg i.p.; body temperature 1-4 hours post-drug; read-out: MED
Method: REVERSAL OF RESERPINE-INDUCED HYPOTHERMIA IN MICE
The assay was used to evaluate the potential antidepressant activity of compounds of this invention.
Male Swiss-Webster Institute for Cancer Research mice weighing 18-24g were utilized for these experiments. The mice, having been in holding quarters for a minimum of 5 days, were placed in plexi-glass cages 17cm by 20cm with sanicel bedding. Five of the 6 groups of 10 mice each, received reserpine, 5mg/kg, i.p. The reserpine (lOmg) was dissolved in 0.06ml glacial acetic acid and 20ml water. The sixth group was not pretreated. Two hours later the mice were dosed with either water or test compound at various doses. The group which had not received the reserpine pretreatment was also dosed with water; consequently a postive and a negative control group were present. The test compounds were administered orally (p.o.) in logarithmically spaced doses.
One hour after the oral dosing, body temperatures were taken from 8 mice from each group utilizing a Yellow Springs-Telethermometer unit. Repeated determinations of body temperature occured at 2, 3 and 4 hours post-drug.
The percent reversal of the reserpine-induced hypothermia was determined according to the formula: [formula] and subjected to an analysis of variance (X = average body temperature of mice from the group). Statistically significant reversal of the reserpine-induced hypothermia was used as a criterion for determining the minimum effective dose (MED) of the compound.

jaw opening reflex = test: Centrally acting skeletal muscle relaxant assay - cat linguomandibular reflex preparation; assay type: in vivo; conditions: Felis catus, iv, anesthetized cats; percent reduction of the jaw opening reflex
Method: This assay is used to assess the centrally acting skeletal muscle relaxant properties of compounds of this invention.
Mongrel cats weighing 2-Skg were anesthetized with phenobarbital sodium, 180mg/kg, i.p. The anesthetized cat was placed in a stereotaxic headholder, shaved, and the femoral artery and vein were cannulated. The cannula from the fermoral artery was connected to a Statham Model P-23 AC Transducer in order to monitor blood pressure. The femoral vein was utilized for the administration of drugs.
The cat was placed in a prone position and two electrodes, consisting of wound clips soldered to wires, were attached bilaterally to the base of the tongue. These leads were then connected to a Grass S8 stimulator. A Grass FT-03 Transducer was placed beneath the jaw. […] Signals from the transducers were recorded on a Beckman Polygraph.
The stimulator was set to deliver single pulses of 2.5msec duration. […] Once the response had ben determined to be stable, drug solution was administered i.v. in logarithmically spaced doses. […]
The percent reduction of the jaw opening reflex was utilized for determining the activity of the drug. Comparisons of the relative block of the reflex, the steepness of the dose response curve, and the cardiovascular sequel were evaluated and an ED50 determined.

tonic extensor seizure = test: Anticonvulsant activity - maximal electroshock test; assay type: in vivo, mice; conditions: Mus musculus, ip, 0.25 h; i.p. fifteen minutes prior to transcorneal electroshock (50 mamp. 0.2sec); antagonism of tonic extensor seizure
Method: ANTICONVULSANT ACTIVITY - MAXIMAL ELECTROSHOCK TEST This assay was used to evaluate the anticonvulsant activity of compounds of this invention. Groups of 10 male Hilltop ICR mice were utilized for these experiments. At fifteen minutes prior to testing, drug or vehicle was administered intraperitoneally (i.p.). At the appropriate time the mice were subjected to a transcorneal electroshock generated by a stimulator (Woodbury, L.A. and Davenport, V.D.: Design and Use Of A New Electroshock Seizure Apparatus And Analysis Of Factors Altering Seizure Threshold And Pattern. Arch. Intern. Pharmacodyn. Ther. 92: 97-107,1952). The shock (50 […]) elicited three types of seizures: tonic extension, tonic flexion and clonic seizures. For the purposes of this test, the antagonism of the tonic extensor seizure was utilized as an endpoint. The quantal data accumulated from several doses of a test compound were utilized to determine an ED50 (Litchfield, J.F. and Wilcoxon, F.: A Simplified Method of Evaluating Dose-effect Experiments). J. Pharmacol. Exp. Ther. 96: 99-113, 1949).

[2] = Acute intraperitoneal toxicity and behavior in mice (Example 14); conditions: mouse, in vivo, ip
male mice (ICR-Simonsen) = test: as above; conditions: for No. of Deaths: 5 mice

SMILES	minimal effective dose [1] [mg/kg]	other results
COC(=O)NC1=NCC(c2cccc(OC)c2)CN1 (centres unmarked) [5|H|3-MeO|H|CH3OC(O)-, 2-methoxycarbonylamino-5-(3-methoxyphenyl)-1,4,5,6-tetrahydropyrimidine]	10	ED50 (jaw opening reflex): 7 mg/kg
CC(C)OC(=O)NC1=NCC(c2ccccc2)CN1 (centres unmarked) [5|H|H|H|(CH3)2CHOC(O)-, 2-isopropoxycarbonylamino-5-phenyl-1,4,5,6-tetrahydropyrimidine]	0.04	
COC(=O)NC1=NCC(c2ccccc2)CN1 (centres unmarked) [5|H|H|H|CH3OC(O)-, 2-methoxycarbonylamino-5-phenyl-1,4,5,6-tetrahydropyrimidine]	0.0006	
NC1=NC(c2ccccc2)CCN1 (centres unmarked) [4|H|H|H|H, 2-amino-4-phenyl-1,4,5,6-tetrahydropyrimidine]	10	
COC(=O)NC1=NCC(c2ccc(C(C)C)cc2)CN1 (centres unmarked) [5|H|4-(CH3)2CH-|H|CH3OC(O), 2-methoxycarbonylamino-5-(4-isopropylphenyl)-1,4,5,6-tetrahydropyrimidine]		ED50 (tonic extensor seizure): 55 mg/kg
COC(=O)NC1=NCC(c2ccccc2Cl)CN1 (centres unmarked) [5|H|2-Cl|H|CH3OC(O)-, 2-methoxycarbonylamino-5-(2-chlorophenyl)-1,4,5,6-tetrahydropyrimidine]	10	ED50 (tonic extensor seizure): 42 mg/kg
COC(=O)NC1=NC(c2ccccc2)CCN1 (centres unmarked) [4|H|H|H|CH3OC(O)-, 2-methoxycarbonylamino-4-phenyl-1,4,5,6-tetrahydropyrimidine]	2.5	
COC(=O)NC1=NC(c2ccc(F)cc2)CCN1 (centres unmarked) [4|H|4-F|H|CH3COC(O)-, 2-methoxycarbonylamino-4-(4-fluorophenyl)-1,4,5,6-tetrahydropyrimidine]	1	
NC1=NCC(c2ccccc2)CN1 (centres unmarked) [5|H|H|H|H, 2-amino-5-phenyl-1,4,5,6-tetrahydropyrimidine]	0.01	
COC(=O)NC1=NCC(c2ccc(Cl)cc2Cl)CN1 (centres unmarked) [5|2-Cl|4-Cl|H|CH3OC(O)-, 2-methoxycarbonylamino-5-(2,4-dichlorophenyl)-1,4,5,6-tetrahydropyrimidine]	1	ED50 (jaw opening reflex): 25 mg/kg
CCOC(=O)NC1=NCC(c2ccccc2)CN1 (centres unmarked) [5|H|H|H|CH3CH2OC(O)-, 2-ethoxycarbonylamino-5-phenyl-1,4,5,6-tetrahydropyrimidine]	0.04	
COC(=O)NC1=NC(c2cccc(OC)c2)CCN1 (centres unmarked) [4|H|3-CH3O|H|CH3OC(O)]	10	
COC(=O)NC1=NCC(c2ccccc2)CN1C (stereo not drawn) [5|H|H|CH3|CH3OC(O)-, l-Methyl-2-methoxycarbonylamino-5-phenyl-1,4,5,6-tetrahydropyrimidine]	0.04	
COC(=O)NC1=NCC(c2c(Cl)cccc2Cl)CN1 (centres unmarked) [5|2-Cl|6-Cl|H|CH3OC(O)-, 2-methoxycarbonylamino-5-(2,6-dichlorophenyl)-1,4,5,6-tetrahydropyrimidine]	0.15	
COC(=O)NC1=NCC(c2ccccc2)CN1.O=C(O)/C=C\C(=O)O (centres unmarked) [2-Methoxycarbonylamino-5-phenyl-1,4,5,6-tetrahydropyrimidine, maleate]		LD50 [2]: 26.5 mg/kg; No. of Deaths (male mice (ICR-Simonsen); Dose 10 mg/kg i.p.): 0; No. of Deaths (male mice (ICR-Simonsen); Dose 15 mg/kg i.p.): 0; No. of Deaths (male mice (ICR-Simonsen); Dose 20 mg/kg i.p.): 0; No. of Deaths (male mice (ICR-Simonsen); Dose 25 mg/kg i.p.): 0; No. of Deaths (male mice (ICR-Simonsen); Dose 27.5 mg/kg i.p.): 4; No. of Deaths (male mice (ICR-Simonsen); Dose 30 mg/kg i.p.): 5; onset of effects (male mice (ICR-Simonsen); after drug administration, i.p., mice): less than five minutes; surviving animals appeared normal (male mice (ICR-Simonsen); after drug, i.p., mice): 90 to 120 min; Behavioral effects observed (male mice (ICR-Simonsen); i.p., 10-30 mg/kg, observed for 2 hours post drug): decreased motor activity, ataxia exophthalmia piloerection increased induced activity, dysporea (increased depth and decreased rate of respiration), lacrimation twitching, moderate clonic convulsions and death
CCCOC(=O)NC1=NCC(c2cccc(Br)c2)CN1 (centres unmarked) [5|H|3-Br|H|CH3(CH)2OC(O)-, 2-n-propoxycarbonylamino-5-(3-bromophenyl)-1,4,5,6-tetrahydropyrimidine]	1	
CC(C)OC(=O)NC1=NCC(c2c(Cl)cccc2Cl)CN1 (centres unmarked) [5|2-Cl|6-Cl|H|(CH3)2CHOC(O)-, 2-i-propoxycarbonylamino-5-(2,6-dichlorophenyl)-1,4,5,6-tetrahydropyrimidine]	1	
CCCOC(=O)NC1=NC(c2ccccc2)CCN1 (centres unmarked) [2-n-propoxycarbonylamino-4-phenyl-1,4,5,6-tetrahydropyrimidine]	10	ED50 (tonic extensor seizure): 30 mg/kg
COC(=O)NC1=NCC(c2cccc(Br)c2)CN1 (centres unmarked) [5|H|3-Br|H|CH3OC(O)-, 2-methoxycarbonylamino-5-(3-bromophenyl)-1,4,5,6-tetrahydropyrimidine]	1	
COC(=O)NC1=NCC(c2ccc(F)cc2)CN1 (centres unmarked) [5|H|4-F|H|CH3OC(O)-, 2-methoxycarbonylamino-5-(4-fluorophenyl)-1,4,5,6-tetrahydropyrimidine]	0.15	ED50 (tonic extensor seizure): 100 mg/kg
NC1=NCC(c2cccc(Br)c2)CN1 (centres unmarked) [5|H|3-Br|H|H-, 2-amino-5-(3-bromophenyl)-1,4,5,6-tetrahydropyrimidine]	10	ED50 (tonic extensor seizure): 47 mg/kg
COC(=O)NC1=NC(c2ccccc2C(F)(F)F)CCN1 (centres unmarked) [4|H|2-CF3|H|CH3OC(O)-, 2-methoxycarbonylamino-4-(2-trifluoromethylphenyl)-1,4,5,6-tetrahydropyrimidine]	1	ED50 (tonic extensor seizure): 44 mg/kg
